Measurements published in US8030083B2, “Method of analyzing protein structural affinity relationship” (Eisai R & D Management Co., Ltd., priority 2004, dated 2011).

Tests used:
water solubility = type: physicochemical
CDK = settings: Knockaert et al.; cited from earlier work
[1] = target: T1, mitochondrial malate dehydrogenase (mMDH) (Homo sapiens, UniProt P40926); settings: Knockaert et al.; cited from earlier work
T1 sequence (P40926 25-338): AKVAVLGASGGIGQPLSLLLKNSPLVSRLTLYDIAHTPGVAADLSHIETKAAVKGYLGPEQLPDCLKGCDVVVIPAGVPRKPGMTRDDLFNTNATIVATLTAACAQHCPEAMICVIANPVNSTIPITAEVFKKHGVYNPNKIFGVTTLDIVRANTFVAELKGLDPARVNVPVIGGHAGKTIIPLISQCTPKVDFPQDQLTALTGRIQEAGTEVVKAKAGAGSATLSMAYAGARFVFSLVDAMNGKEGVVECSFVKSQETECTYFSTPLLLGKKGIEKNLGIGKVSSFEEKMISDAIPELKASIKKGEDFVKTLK

## NS(=O)(=O)c1ccc(S(=O)(=O)Nc2cccc3c(Cl)c[nH]c23)cc1 [E7070]
Water solubility
  water solubility: poor in water solubility

## O=C1Cc2c([nH]c3ccccc23)-c2ccccc2N1 [paullone]
CDK
  inhibition of CDK: inhibitor
[1]
  inhibition of mMDH activity: inhibits mMDH activity with certainty
